From US9107415B2, “2-(substituted-phenyl)-cyclopentane-1,3-dione compounds, and derivatives thereof” (Syngenta Limited, priority 2011, dated 2015)

Experiments:
Format in all cases: in vivo
[1] = system: Avena fatua (AVEFA); assay: Biological Example 1 glasshouse screen, post-emergence herbicidal activity; settings: 312 h, read-out: AVEFA percentage phytotoxicity
How it was run: (§1)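 Pots in a glasshouse (24/16°C day/night, 14 h light, 65% humidity) were sprayed one day after sowing (pre-emergence) or after 8 days (post-emergence), using acetone/water (50:50) with 0.5% Tween 20. Phytotoxicity was scored visually as % damage (0-100) 13 days after application.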

[2] = system: Lolium perenne (LOLPE); assay: as above; settings: 312 h, read-out: LOLPE percentage phytotoxicity
How it was run: as §1

[3] = system: Winter Wheat “Hereward”; assay: Biological Example 4A post-emergence phytotoxicity on cereal crops; settings: 14 DAA, EC formulation, mean of two
Procedure: (§2) Seeds of a variety of test species are sown in standard soil in pots. After cultivation for 14 days under controlled conditions in a glasshouse (at 22/16°C., day/night; 16 hours light; 65% humidity), the plants are sprayed with the test compounds. The test plants are then grown on under controlled conditions in the glasshouse (at 22/16°C., day/night; 16 hours light; 65% humidity) and are watered twice daily. After 14 days the test is evaluated visually (100%=total damage to plant; 0%=no damage to plant). Post-emergence herbicidal activity (phytotoxicity) data, on certain grassy monocotyledonous weeds and cereal crops in a glasshouse, are measured 14 days after application of the herbicide (14 DAA), inter alia for post-emergence application rates of 30 or 60 g/ha of the test herbicide, with or without 50 g/ha of cloquintocet-mexyl safener applied at substantially the same time as the herbicide.
(§3) Herbicidal activity (phytotoxicity) is evaluated visually, and an assessed percentage phytotoxicity score is given for each herbicidal application on each plant species (with 100%=total damage to plant; 0%=no damage to plant). Two repetitions are made for each experiment and the mean herbicidal activity (phytotoxicity) data is reported.
(§4) Biological Example 4A is used on previously-formulated compounds, typically compounds previously formulated as an emulsifiable concentrates (EC), wherein the EC contains the herbicidal compound under test dissolved in one or more organic solvents, and wherein the EC also contains one or more surfactants or emulsifiers. In the test method, the EC containing the herbicide (plus a cloquintocet-mexyl formulation if this is also present) is generally diluted with water to form an emulsion, and the resulting emulsion is sprayed onto the emerged weed and/or crop plants.
(§5) For the testing of Compounds A-5 and A-6, each of these compounds was separately formulated into an emulsifiable concentrate containing 10% w/w of the herbicidal compound, 9% w/w of castor oil ethoxylate (an emulsifier, present as Emulsogen™EL360), 6% w/w of calcium dodecylbenzenesulfonate (linear) (an emulsifier, present as Nansa™EVM 63B), 3% w/w of tristyrylphenol ethoxylate having 16 moles of ethoxylation per mole of molecule (an emulsifier, present as Soprophor™BSU), 10% w/w of benzyl benzoate (as solvent), 20% w/w of 1-methyl-2-pyrrolidone (as solvent), and the remainder of N-octyl-2-pyrrolidone (as solvent). The solvents and surfactants/emulsifiers were first mixed together, to form a “blank” EC, and the herbicidal compound was then added to and dissolved in this solvent and emulsifier mixture to prepare the emulsifiable concentrate, to give an EC formulation/composition containing approximately 100 g/L of active herbicidal compound.
(§6) In the tests of Compounds A-5 and A-6, the cloquintocet-mexyl was pre-formulated as a formulation/composition containing 10% w/w cloquintocet-mexyl, 6% w/w Emulsogen™ EL360 (as emulsifier), 4% w/w Nansa™EVM 63B (as wetting agent), 1% w/w Drapex™39 (epoxidised soybean oil), 20% w/w 1-methyl-2-pyrrolidone (as solvent), and the remainder as Solvesso™200ND (a mixture of heavy aromatic hydrocarbons, as a solvent).

[4] = system: Spring Barley “Harrington”; assay: as above; settings: 14 DAA, EC formulation, mean of two
Procedure: as §2, §3, §4, §5, §6

[5] = system: Winter Barley “Suzuka”; assay: as above; settings: 14 DAA, EC formulation, mean of two
Procedure: as §2, §3, §4, §5, §6

[6] = system: Spring Wheat “Teal”; assay: as above; settings: 14 DAA, EC formulation, mean of two
Procedure: as §2, §3, §4, §5, §6

[7] = system: Echinochloa crus-galli (ECHCG); assay: Biological Example 1 glasshouse screen, post-emergence herbicidal activity; settings: 312 h, read-out: ECHCG percentage phytotoxicity
How it was run: (§7)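 Glasshouse, 24/16°C, 14 h light, 65% RH, watered twice daily. Spray: technical a.i., acetone/water 50:50, 0.5% Tween 20. Timing: day 1 pre-em, day 8 post-em. Score: visual % damage, day 13.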

[8] = system: Alopecurus myosuroides (ALOMY); assay: as above; settings: 312 h, read-out: ALOMY percentage phytotoxicity
How it was run: as §7

[9] = system: Setaria viridis (SETVI); assay: Biological Example 4A (previously-formulated compounds) post-emergence herbicidal activity on grassy weeds; settings: 14 DAA, EC formulation, mean of two
Procedure: as §2, §3, §4, §5, §6
(§8) Test plants: Avena fatua (AVEFA), Lolium multiflorum (LOLMU), Setaria viridis (SETVI), Poa annua (POAAN), Alopecurus myosuroides (ALOMY). All five of these are grassy monocotyledonous weeds.

[10] = system: Alopecurus myosuroides (ALOMY); assay: as above; settings: 14 DAA, EC formulation, mean of two
Procedure: as §2, §3, §4, §5, §6, §8

[11] = system: Avena fatua (AVEFA); assay: as above; settings: 14 DAA, EC formulation, mean of two
Procedure: as §2, §3, §4, §5, §6, §8

[12] = system: Poa annua (POAAN); assay: as above; settings: 14 DAA, EC formulation, mean of two
Procedure: as §2, §3, §4, §5, §6, §8

[13] = system: Lolium multiflorum (LOLMU); assay: as above; settings: 14 DAA, EC formulation, mean of two
Procedure: as §2, §3, §4, §5, §6, §8

[14] = system: grassy monocotyledonous weeds such as Lolium, Alopecurus, Echinochloa and/or Avena; assay: Post-emergence herbicidal activity on grassy monocotyledonous weeds, summary statements (Biological Examples 1 to 4)
[15] = 30 g/ha, cloquintocet-mexyl 0 g/ha
[16] = 30 g/ha, cloquintocet-mexyl 50 g/ha
[17] = 60 g/ha, cloquintocet-mexyl 0 g/ha
[18] = 60 g/ha, cloquintocet-mexyl 50 g/ha

CC#Cc1cc(C)c(C2C(=O)C[C@@H](Cc3ccccn3)C2=O)c(C)c1 (some centres unmarked) [Compound A-6]
pest or weed control at 250 g/ha [1]: 100%
pest or weed control at 250 g/ha [2]: 100%
Winter Wheat “Hereward” phytotoxicity (%) [3, 15]: 65%
Winter Wheat “Hereward” phytotoxicity (%) [3, 16]: 15%
Winter Wheat “Hereward” phytotoxicity (%) [3, 17]: 80%
Winter Wheat “Hereward” phytotoxicity (%) [3, 18]: 20%
Spring Barley “Harrington” phytotoxicity (%) [4, 15]: 95%
Spring Barley “Harrington” phytotoxicity (%) [4, 16]: 13%
Spring Barley “Harrington” phytotoxicity (%) [4, 17]: 98%
Spring Barley “Harrington” phytotoxicity (%) [4, 18]: 48%
Winter Barley “Suzuka” phytotoxicity (%) [5, 15]: 93%
Winter Barley “Suzuka” phytotoxicity (%) [5, 16]: 10%
Winter Barley “Suzuka” phytotoxicity (%) [5, 17]: 98%
Winter Barley “Suzuka” phytotoxicity (%) [5, 18]: 25%
Spring Wheat “Teal” phytotoxicity (%) [6, 15]: 78%
Spring Wheat “Teal” phytotoxicity (%) [6, 16]: 25%
Spring Wheat “Teal” phytotoxicity (%) [6, 17]: 94%
Spring Wheat “Teal” phytotoxicity (%) [6, 18]: 45%
pest or weed control at 250 g/ha [7]: 100%
pest or weed control at 250 g/ha [8]: 100%
SETVI % phytotoxicity [9, 15]: 100%
SETVI % phytotoxicity [9, 16]: 100%
SETVI % phytotoxicity [9, 17]: 100%
SETVI % phytotoxicity [9, 18]: 100%
ALOMY % phytotoxicity [10, 15]: 100%
ALOMY % phytotoxicity [10, 16]: 100%
ALOMY % phytotoxicity [10, 17]: 100%
ALOMY % phytotoxicity [10, 18]: 100%
AVEFA % phytotoxicity [11, 15]: 98%
AVEFA % phytotoxicity [11, 16]: 90%
AVEFA % phytotoxicity [11, 17]: 100%
AVEFA % phytotoxicity [11, 18]: 99%
POAAN % phytotoxicity [12, 15]: 65%
POAAN % phytotoxicity [12, 16]: 48%
POAAN % phytotoxicity [12, 17]: 94%
POAAN % phytotoxicity [12, 18]: 85%
LOLMU % phytotoxicity [13, 15]: 100%
LOLMU % phytotoxicity [13, 16]: 100%
LOLMU % phytotoxicity [13, 17]: 100%
LOLMU % phytotoxicity [13, 18]: 100%
post-emergence herbicidal activity against grassy monocotyledonous weeds, in words [14]: more potent herbicidal activity
